Laboratory results as given in ChEMBL document CHEMBL4715697, “Synthesis and biological activity of benzamide DNA minor groove binders” (2016).

Assays:
Format in all cases: functional
Conditions in all cases: read-out: Activity
KM12 = experiment: Growth inhibition of human KM12 cells assessed as cell growth at 10 uM incubated for 48 hrs by sulforhodamine B assay relative to control
CCRF-CEM = experiment: Growth inhibition of human CCRF-CEM cells assessed as cell growth at 10 uM incubated for 48 hrs by sulforhodamine B assay relative to control
COLO 205 = experiment: Growth inhibition of human COLO 205 cells assessed as cell growth at 10 uM incubated for 48 hrs by sulforhodamine B assay relative to control
SK-OV-3 = experiment: Growth inhibition of human SK-OV-3 cells assessed as cell growth at 10 uM incubated for 48 hrs by sulforhodamine B assay relative to control
PC-3 = experiment: Growth inhibition of human PC-3 cells assessed as cell growth at 10 uM incubated for 48 hrs by sulforhodamine B assay relative to control
SNB-75 = experiment: Growth inhibition of human SNB-75 cells assessed as cell growth at 10 uM incubated for 48 hrs by sulforhodamine B assay relative to control
U-251 = experiment: Growth inhibition of human U-251 cells assessed as cell growth at 10 uM incubated for 48 hrs by sulforhodamine B assay relative to control
Malme-3M = experiment: Growth inhibition of human Malme-3M cells assessed as cell growth at 10 uM incubated for 48 hrs by sulforhodamine B assay relative to control
OVCAR-3 = experiment: Growth inhibition of human OVCAR-3 cells assessed as cell growth at 10 uM incubated for 48 hrs by sulforhodamine B assay relative to control
OVCAR-8 = experiment: Growth inhibition of human OVCAR-8 cells assessed as cell growth at 10 uM incubated for 48 hrs by sulforhodamine B assay relative to control
HCT-15 = experiment: Growth inhibition of human HCT-15 cells assessed as cell growth at 10 uM incubated for 48 hrs by sulforhodamine B assay relative to control
MDA-MB-435 = experiment: Growth inhibition of human MDA-MB-435 cells assessed as cell growth at 10 uM incubated for 48 hrs by sulforhodamine B assay relative to control
OVCAR-5 = experiment: Growth inhibition of human OVCAR-5 cells assessed as cell growth at 10 uM incubated for 48 hrs by sulforhodamine B assay relative to control
ACHN = experiment: Growth inhibition of human ACHN cells assessed as cell growth at 10 uM incubated for 48 hrs by sulforhodamine B assay relative to control
SNB-19 = experiment: Growth inhibition of human SNB-19 cells assessed as cell growth at 10 uM incubated for 48 hrs by sulforhodamine B assay relative to control
HCC 2998 = experiment: Growth inhibition of human HCC 2998 cells assessed as cell growth at 10 uM incubated for 48 hrs by sulforhodamine B assay relative to control
DU-145 = experiment: Growth inhibition of human DU-145 cells assessed as cell growth at 10 uM incubated for 48 hrs by sulforhodamine B assay relative to control
MDA-MB-468 = experiment: Growth inhibition of human MDA-MB-468 cells assessed as cell growth at 10 uM incubated for 48 hrs by sulforhodamine B assay relative to control
HOP-62 = experiment: Growth inhibition of human HOP-62 cells assessed as cell growth at 10 uM incubated for 48 hrs by sulforhodamine B assay relative to control
NCI-H522 = experiment: Growth inhibition of human NCI-H522 cells assessed as cell growth at 10 uM incubated for 48 hrs by sulforhodamine B assay relative to control
K562 = experiment: Growth inhibition of human K562 cells assessed as cell growth at 10 uM incubated for 48 hrs by sulforhodamine B assay relative to control
UO-31 = experiment: Growth inhibition of human UO-31 cells assessed as cell growth at 10 uM incubated for 48 hrs by sulforhodamine B assay relative to control
RPMI-8226 = experiment: Growth inhibition of human RPMI-8226 cells assessed as cell growth at 10 uM incubated for 48 hrs by sulforhodamine B assay relative to control
SF-268 = experiment: Growth inhibition of human SF-268 cells assessed as cell growth at 10 uM incubated for 48 hrs by sulforhodamine B assay relative to control
SF-539 = experiment: Growth inhibition of human SF-539 cells assessed as cell growth at 10 uM incubated for 48 hrs by sulforhodamine B assay relative to control
RXF 393 = experiment: Growth inhibition of human RXF 393 cells assessed as cell growth at 10 uM incubated for 48 hrs by sulforhodamine B assay relative to control
M14 = experiment: Growth inhibition of human M14 cells assessed as cell growth at 10 uM incubated for 48 hrs by sulforhodamine B assay relative to control
HCT-116 = experiment: Growth inhibition of human HCT-116 cells assessed as cell growth at 10 uM incubated for 48 hrs by sulforhodamine B assay relative to control
MOLT-4 = experiment: Growth inhibition of human MOLT-4 cells assessed as cell growth at 10 uM incubated for 48 hrs by sulforhodamine B assay relative to control
NCI-H23 = experiment: Growth inhibition of human NCI-H23 cells assessed as cell growth at 10 uM incubated for 48 hrs by sulforhodamine B assay relative to control
HT-29 = experiment: Growth inhibition of human HT-29 cells assessed as cell growth at 10 uM incubated for 48 hrs by sulforhodamine B assay relative to control
CAKI-1 = experiment: Growth inhibition of human CAKI-1 cells assessed as cell growth at 10 uM incubated for 48 hrs by sulforhodamine B assay relative to control
NCI-H322M = experiment: Growth inhibition of human NCI-H322M cells assessed as cell growth at 10 uM incubated for 48 hrs by sulforhodamine B assay relative to control
SK-MEL-2 = experiment: Growth inhibition of human SK-MEL-2 cells assessed as cell growth at 10 uM incubated for 48 hrs by sulforhodamine B assay relative to control
UACC-62 = experiment: Growth inhibition of human UACC-62 cells assessed as cell growth at 10 uM incubated for 48 hrs by sulforhodamine B assay relative to control
HL-60(TB) = experiment: Growth inhibition of human HL-60(TB) cells assessed as cell growth at 10 uM incubated for 48 hrs by sulforhodamine B assay relative to control
BT-549 = experiment: Growth inhibition of human BT-549 cells assessed as cell growth at 10 uM incubated for 48 hrs by sulforhodamine B assay relative to control
T47D = experiment: Growth inhibition of human T47D cells assessed as cell growth at 10 uM incubated for 48 hrs by sulforhodamine B assay relative to control
IGROV-1 = experiment: Growth inhibition of human IGROV-1 cells assessed as cell growth at 10 uM incubated for 48 hrs by sulforhodamine B assay relative to control
MCF7 = experiment: Growth inhibition of human MCF7 cells assessed as cell growth at 10 uM incubated for 48 hrs by sulforhodamine B assay relative to control

| Compound | growth at 10 µM (KM12) | growth at 10 µM (CCRF-CEM) | growth at 10 µM (COLO 205) | growth at 10 µM (SK-OV-3) | growth at 10 µM (PC-3) | growth at 10 µM (SNB-75) | growth at 10 µM (U-251) | growth at 10 µM (Malme-3M) | growth at 10 µM (OVCAR-3) | growth at 10 µM (OVCAR-8) | growth at 10 µM (HCT-15) | growth at 10 µM (MDA-MB-435) | growth at 10 µM (OVCAR-5) | growth at 10 µM (ACHN) | growth at 10 µM (SNB-19) | growth at 10 µM (HCC 2998) | growth at 10 µM (DU-145) | growth at 10 µM (MDA-MB-468) | growth at 10 µM (HOP-62) | growth at 10 µM (NCI-H522) | further results |
| --- | --- | --- | --- | --- | --- | --- | --- | --- | --- | --- | --- | --- | --- | --- | --- | --- | --- | --- | --- | --- | --- |
| CC(=O)Nc1cc(CO)cc(NC(=O)c2ccc(C(=O)Nc3cc(CO)cc(NC(C)=O)c3)cc2)c1 | 136% | 87.4% | 109% | 101% | 97.9% | 102% | 112% | 113% | 139% | 107% | 104% | 102% | 106% | 109% | 102% | 99.6% | 127% | 101% | 102% | 94.1% | growth at 10 µM (K562): 106%; growth at 10 µM (UO-31): 97.1%; growth at 10 µM (RPMI-8226): 94.5%; growth at 10 µM (SF-268): 115%; growth at 10 µM (SF-539): 99.6%; growth at 10 µM (RXF 393): 103%; growth at 10 µM (M14): 104%; growth at 10 µM (HCT-116): 98.6%; growth at 10 µM (MOLT-4): 101%; growth at 10 µM (NCI-H23): 103%; growth at 10 µM (HT-29): 107%; growth at 10 µM (CAKI-1): 117%; growth at 10 µM (NCI-H322M): 103%; growth at 10 µM (SK-MEL-2): 93.3%; growth at 10 µM (UACC-62): 103%; growth at 10 µM (HL-60(TB)): 107%; growth at 10 µM (BT-549): 99.5%; growth at 10 µM (T47D): 92%; growth at 10 µM (IGROV-1): 103%; growth at 10 µM (MCF7): 97.4% |
| CC(=O)Nc1cc(CO)cc(NC(=O)c2cccc(NC(=O)CCCN3CCOCC3)c2)c1 | 135% | 89.4% | 110% | 104% | 102% | 102% | 104% | 112% | 145% | 107% | 103% | 103% | 101% | 108% | 97.7% | 101% | 108% | 92.3% | 103% | 93.1% | growth at 10 µM (K562): 105%; growth at 10 µM (UO-31): 95.5%; growth at 10 µM (RPMI-8226): 92.1%; growth at 10 µM (SF-268): 107%; growth at 10 µM (SF-539): 98.9%; growth at 10 µM (RXF 393): 105%; growth at 10 µM (M14): 106%; growth at 10 µM (HCT-116): 98.9%; growth at 10 µM (MOLT-4): 102%; growth at 10 µM (NCI-H23): 105%; growth at 10 µM (HT-29): 106%; growth at 10 µM (CAKI-1): 116%; growth at 10 µM (NCI-H322M): 105%; growth at 10 µM (SK-MEL-2): 97.8%; growth at 10 µM (UACC-62): 100%; growth at 10 µM (HL-60(TB)): 110%; growth at 10 µM (BT-549): 91.7%; growth at 10 µM (T47D): 96%; growth at 10 µM (IGROV-1): 106%; growth at 10 µM (MCF7): 105% |
| CC(=O)Nc1cc(CO[Si](C)(C)C(C)(C)C)cc(NC(=O)c2ccc(C(=O)Nc3cccc(NC(=O)CCCN(C)C)c3)cc2)c1 | 95% | 109% | 98% | 103% | 97% | 73% | 87% | 88% | 104% | 93% | 85% | 96% | 80% | 90% | 100% | 93% | 97% | 89% | 92% | 82% | growth at 10 µM (K562): 93%; growth at 10 µM (UO-31): 105%; growth at 10 µM (RPMI-8226): 106%; growth at 10 µM (SF-268): 94%; growth at 10 µM (SF-539): 89%; growth at 10 µM (RXF 393): 95%; growth at 10 µM (M14): 90%; growth at 10 µM (HCT-116): 99%; growth at 10 µM (MOLT-4): 91%; growth at 10 µM (NCI-H23): 90%; growth at 10 µM (HT-29): 106%; growth at 10 µM (CAKI-1): 86%; growth at 10 µM (NCI-H322M): 102%; growth at 10 µM (SK-MEL-2): 102%; growth at 10 µM (UACC-62): 89%; growth at 10 µM (HL-60(TB)): 81%; growth at 10 µM (BT-549): 84%; growth at 10 µM (T47D): 73%; growth at 10 µM (IGROV-1): 90%; growth at 10 µM (MCF7): 77% |
